The values that follow come from ChEMBL document CHEMBL1201862, “PubChem BioAssay data set” (2004).

Molecules are shown by their SMILES.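 Five concentrations, 48 hours, 96-well plates. GI50 is the concentration that inhibits growth by half.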 Activity calls are given as the source filed them. No stated cut-off is given here; in the data, active = GI50 up to about 1.1 µM and inactive = higher.

Test systems include 786-0; A498; CCRF-CEM; HCT-116; HT-29; IGROV-1; K562; NCI-H460; OVCAR-3; OVCAR-5; SF-268; SF-539; SR; TK-10; UO-31; DU-145; PC-3; MCF7; MDA-MB-231.
Common to all, as to test: NCI anticancer screen, dose series, 48 h

Consider `CN(C)CCNc1ccc2ncn3c4ccccc4c(=O)c1c23`, for which the GI50 in the assay on 786-0 was 2.03 µM (inactive); with A498 it was 6.93 µM (inactive); with CCRF-CEM it was 2.25 µM (inactive); in the assay with HCT-116, 0.459 µM (active); with HT-29, 1.38 µM (inactive); in the assay with IGROV-1, 2.42 µM (inactive). For the same compound, the GI50 in the assay on K562 was > 100 µM (inactive); with NCI-H460, 0.805 µM (active); in the assay with OVCAR-3, 7.76 µM (inactive); in the assay with OVCAR-5 it was 1.66 µM (inactive); in the assay with SF-268, 1.91 µM (inactive); in the assay on SF-539, 3.62 µM (inactive). The figures for the GI50 in the assay on SR, in the assay on TK-10 and in the assay on UO-31 were 0.822 µM (active), 2.93 µM (inactive) and 1.53 µM (inactive), respectively.
Regarding `CCOC(=O)CCC(NC(=O)c1ccc(/N=C/c2nc3cc(C(F)(F)F)ccc3nc2-c2ccccc2)cc1)C(=O)OCC` (stereo not given), the GI50 is 7.38 µM (inactive) with 786-0; 23.4 µM (inactive) with A498; > 50 µM (inactive) in the assay on CCRF-CEM; 34.1 µM (inactive) in the assay on DU-145; 6.56 µM (inactive) in the assay with HCT-116; > 50 µM (inactive) with HT-29. Moreover, the GI50 in the assay on IGROV-1 is 15.3 µM (inactive); with K562, > 50 µM (inactive); in the assay with NCI-H460, 24 µM (inactive); with OVCAR-3, 46.6 µM (inactive); in the assay with OVCAR-5 it was > 50 µM (inactive); in the assay on PC-3 it was > 50 µM (inactive). Besides, the GI50 in the assay on SF-268 was 8.34 µM (inactive); with SF-539, 11.4 µM (inactive); in the assay with SR it was > 50 µM (inactive); in the assay on TK-10, 12.1 µM (inactive); in the assay on UO-31, > 50 µM (inactive).
For the compound `O=C(CN(c1ccccc1)c1ccccc1)N1c2ccccc2C2C=CC=CC21` (stereo not given), the GI50 in the assay on 786-0 was 22.6 µM (inactive); in the assay with A498, 32.4 µM (inactive); in the assay with CCRF-CEM it was 9.42 µM (inactive); in the assay on HCT-116, 13.8 µM (inactive); with HT-29, 22.2 µM (inactive); with IGROV-1 it was 21.3 µM (inactive). For the same compound, the GI50 is 14.3 µM (inactive) with K562; 19.3 µM (inactive) in the assay on NCI-H460; 17.4 µM (inactive) in the assay with OVCAR-3; 24 µM (inactive) with OVCAR-5; 26.5 µM (inactive) in the assay on SF-268; 18.8 µM (inactive) in the assay on SF-539. Also, the figures for the GI50 with SR, in the assay on TK-10 and in the assay with UO-31 were 0.579 µM (active), 24.3 µM (inactive) and 30.1 µM (inactive), respectively.
As for `O=C1CC(c2ccc(Cl)cc2)=Nc2ccccc2N1`, the GI50 is 36.1 µM (inactive) in the assay with 786-0; 79.6 µM (inactive) in the assay with A498; 15.1 µM (inactive) in the assay on CCRF-CEM; 28.6 µM (inactive) in the assay on HCT-116; > 100 µM (inactive) in the assay on HT-29; > 100 µM (inactive) in the assay with IGROV-1. For the same compound, the GI50 in the assay on K562 was 40 µM (inactive); in the assay with NCI-H460 it was 34.7 µM (inactive); with OVCAR-3, 84.9 µM (inactive); with OVCAR-5, > 100 µM (inactive); in the assay with SF-268 it was > 100 µM (inactive); in the assay on SF-539, 96.6 µM (inactive). Further, the values for the GI50 in the assay on SR, in the assay with TK-10 and in the assay with UO-31 were 37.8 µM (inactive), 43.3 µM (inactive) and 48 µM (inactive), respectively.
`C/C(=N\Nc1ccc([N+](=O)[O-])cc1)C(=O)N(C)Nc1ccccc1`: the GI50 in the assay on 786-0 is > 100 µM (inactive); in the assay with A498, 29 µM (inactive); with CCRF-CEM it was > 100 µM (inactive); in the assay with HT-29, 66.8 µM (inactive); in the assay on IGROV-1, 58.9 µM (inactive); in the assay with K562, 63.2 µM (inactive). Besides, the GI50 with NCI-H460 is 47.1 µM (inactive); with OVCAR-3, 43.9 µM (inactive); in the assay with SF-539 it was 76.4 µM (inactive); in the assay on SR, 47.8 µM (inactive); with TK-10, 64.3 µM (inactive); in the assay with UO-31 it was 39.9 µM (inactive).
As for `N#CC(C(=O)CCC(=O)C(C#N)c1ccccc1)c1ccccc1` (stereo not given), the GI50 in the assay on 786-0, in the assay with A498, with CCRF-CEM, with HCT-116, with HT-29 and in the assay on IGROV-1 was > 100 µM (inactive) throughout. Besides, the GI50 in the assay on K562, in the assay on NCI-H460, with OVCAR-3, in the assay with OVCAR-5, in the assay on SF-268 and with SF-539 was > 100 µM (inactive) throughout. For the same compound, the GI50 with SR, with TK-10 and in the assay on UO-31 was > 100 µM (inactive) in each case.
For `Cc1cccc(C)c1NC(=O)CCC(=O)NNc1nnc(C)n1N`, the GI50 is > 100 µM (inactive) with 786-0; 53.3 µM (inactive) in the assay with A498; > 100 µM (inactive) in the assay with CCRF-CEM; > 100 µM (inactive) in the assay on HCT-116; > 100 µM (inactive) in the assay with HT-29; > 100 µM (inactive) in the assay with IGROV-1. Besides, the GI50 with K562, in the assay with NCI-H460, in the assay with OVCAR-3, in the assay with OVCAR-5, in the assay with SF-268 and in the assay on SF-539 was > 100 µM (inactive) throughout. The GI50 in the assay with SR, with TK-10 and with UO-31 was > 100 µM (inactive) throughout.
For `c1ccc(-n2nc3ccc4nonc4c3n2)cc1`, the GI50 in the assay on 786-0, in the assay with CCRF-CEM, in the assay on DU-145, with HCT-116, in the assay with HT-29 and in the assay on IGROV-1 was > 100 µM (inactive) throughout. Besides, the GI50 in the assay on K562, in the assay with MCF7, in the assay on MDA-MB-231, in the assay with NCI-H460, in the assay with OVCAR-3 and in the assay with OVCAR-5 was > 100 µM (inactive) throughout. The GI50 in the assay on PC-3, in the assay on SF-268, in the assay with SF-539, with SR and with TK-10 was > 100 µM (inactive) each time.
In the case of `COC(=O)C(Cc1nc2ccccc2nc1O)C(NO)C(=O)Nc1c(Cl)cc([N+](=O)[O-])cc1Cl` (stereo not given), the GI50 was 40.6 µM (inactive) with 786-0; 21.4 µM (inactive) in the assay on A498; 23.3 µM (inactive) in the assay with CCRF-CEM; 22.3 µM (inactive) in the assay with HCT-116; 35.2 µM (inactive) in the assay with HT-29; 40.8 µM (inactive) in the assay on IGROV-1. Moreover, the GI50 was 40.8 µM (inactive) in the assay with K562; 20.7 µM (inactive) in the assay on NCI-H460; 40.6 µM (inactive) in the assay on OVCAR-3; 32.8 µM (inactive) in the assay on SF-268; 22.8 µM (inactive) in the assay on SF-539; 31.3 µM (inactive) in the assay with SR. In addition, the GI50 in the assay with UO-31 is 36.1 µM (inactive).
For the compound `Cc1cc(-c2c(Br)cc(C(=O)O)n2C)on1`, the GI50 in the assay on 786-0, in the assay with A498, in the assay on CCRF-CEM, in the assay with DU-145, with HCT-116 and with HT-29 was > 100 µM (inactive) in each case. Also, the GI50 with K562, in the assay on MDA-MB-231, with NCI-H460, in the assay with OVCAR-3, in the assay with OVCAR-5 and with PC-3 was > 100 µM (inactive) throughout. For the same compound, the GI50 in the assay on SF-268, with SF-539, in the assay with TK-10 and in the assay on UO-31 was > 100 µM (inactive) in each case.
`NC(=O)c1c2c(cc3c(=O)c4ccccc4[nH]c13)CCCC2`: the GI50 in the assay on 786-0 was > 69.3 µM (inactive); with A498, > 100 µM (inactive); in the assay on CCRF-CEM, > 65 µM (inactive); in the assay on HCT-116 it was > 100 µM (inactive); in the assay with HT-29, > 100 µM (inactive); with IGROV-1 it was > 100 µM (inactive). In addition, the GI50 in the assay on K562 is > 65.2 µM (inactive); in the assay with NCI-H460, > 100 µM (inactive); in the assay on OVCAR-3, > 100 µM (inactive); in the assay on OVCAR-5, > 100 µM (inactive); with SF-268, > 100 µM (inactive); in the assay with SF-539 it was > 100 µM (inactive). The GI50 with SR, in the assay with TK-10 and in the assay on UO-31 was > 100 µM (inactive) each time.
With `CC12CCC[C@@](C)(C(=O)OC3OC(CO)C(O)C(O)C3O)[C@H]1CCC13CC4CC(OC4(CO)[C@H]1O)[C@@H]23` (stereo not given in full), the GI50 in the assay with 786-0, in the assay with A498, with CCRF-CEM, in the assay on HCT-116, with HT-29 and with IGROV-1 was > 100 µM (inactive) throughout. Further, the GI50 in the assay on K562, with NCI-H460, with OVCAR-3, in the assay with OVCAR-5, with SF-268 and in the assay with SF-539 was > 100 µM (inactive) throughout. In addition, the GI50 in the assay on SR, with TK-10 and in the assay on UO-31 was > 100 µM (inactive) throughout.
Take `CC1CC[C@]2(C(=O)O)CCC3(COC(=O)/C=C\c4ccc(O)cc4)C(=CCC4[C@@]5(C)CC[C@H](O)C(C)(C)C5CC[C@]43C)[C@@H]2[C@H]1C` (stereo not given in full): the GI50 was 21.3 µM (inactive) with 786-0; 27 µM (inactive) with A498; 20.4 µM (inactive) with CCRF-CEM; 17.5 µM (inactive) in the assay on HCT-116; 19.7 µM (inactive) with HT-29; 11.5 µM (inactive) in the assay on IGROV-1. The GI50 in the assay on K562 is 13 µM (inactive); with NCI-H460, 15.7 µM (inactive); in the assay on OVCAR-3, 18.2 µM (inactive); in the assay with OVCAR-5, 19.5 µM (inactive); with SF-268, 14.7 µM (inactive); in the assay on SF-539 it was 15.8 µM (inactive). The GI50 is 20.6 µM (inactive) in the assay with SR, 21.7 µM (inactive) in the assay on TK-10 and 17.7 µM (inactive) in the assay on UO-31.
